Source: ChEMBL document CHEMBL5096200, “A short survey of dengue protease inhibitor development in the past 6 years (2015-2020) with an emphasis on similarities between DENV and SARS-CoV-2 proteases” (Bioorg Med Chem, 2021)
In brackets after ≈: the same amount, converted by molar mass.

Key:
dengue virus type 2 [1] = assay: Antiviral activity against DENV2 infected in human Huh-7 cells using Boc-GRR-AMC as substrate incubated for 30 mins by fluorescence spectroscopy assay; type: functional, organism-based; conditions: Huh-7, 0.5 h
Genome polyprotein [2] = target: T1, Genome polyprotein (dengue virus type 2, UniProt P29990); assay: Inhibition of DENV NS2B/NS3 protease transfected in human Huh-7 cells using 7-amino-4-methylcoumarin (AMC) fluorophore-linked peptide substrate Boc-GRR-AMC as substrate by fluoroscence based assay; type: cell-based
dengue virus type 2 [3] = assay: Antiviral activity against DENV2 assessed as inhibition of viral replication; type: functional, organism-based
dengue virus type 2 [4] = assay: Antiviral activity against DENV-2 infected in human Huh-7 cells assessed as reduction in viral RNA treated for 3 days by qRT-PCR analysis; type: functional, organism-based; conditions: Huh-7, 72 h
[5] = Inhibition of DENV2 pro infected in human Huh-7 cells using 7-amino-4-methylcoumarin (AMC) fluorophore-linked Boc-GRR-AMC as substrate incubated for 30 mins; type: cell-based, dengue virus type 2; conditions: Dengue virus, Huh-7, 0.5 h
Genome polyprotein [6] = target: T1, Genome polyprotein; assay: Inhibition of DENV-2 NS2B/NS3 protease expressed in Escherichia coli XL1 using Boc-GRR-MCA as substrate preincubated for 10 mins followed by substrate addition and measured after 60 mins
[7] = Antiviral activity against Dengue virus 4 infected in african green monkey Vero cells assessed as reduction in viral titer preincubated for 1 hour with cells followed by viral infection and measured upto 7 days by plague assay relative to control; type: functional, dengue virus type 4; conditions: time <= 7 day
Genome polyprotein [8] = target: T1, Genome polyprotein; assay: Inhibition of DENV-2 NS2bNS3 pro
dengue virus type 1 [9] = assay: Antiviral activity against Dengue virus 1 infected in african green monkey Vero cells assessed as reduction in viral titer preincubated for 1 hour with cells followed by viral infection and measured upto 7 days by plague assay relative to control; type: functional; conditions: time <= 7 day
[10] = Antiviral activity against Dengue virus 2 infected in african green monkey Vero cells assessed as reduction in viral titer preincubated for 1 hour with cells followed by viral infection and measured upto 7 days by plague assay relative to control; type: functional, dengue virus type 2; conditions: time <= 7 day
[11] = Antiviral activity against Dengue virus 3 infected in african green monkey Vero cells assessed as reduction in viral titer preincubated for 1 hour with cells followed by viral infection and measured upto 7 days by plague assay relative to control; type: functional, dengue virus type 3; conditions: time <= 7 day
[12] = Antiviral activity against DENV2 infected in human HepG2 cells measured after 48 hrs by plaque assay; type: functional, cell-based, dengue virus type 2; conditions: Dengue virus, HepG2, 48 h
Genome polyprotein [13] = target: T1, Genome polyprotein; assay: Inhibition of DENV2 NS2B-NS3 protease using Boc-Gly-Arg-Arg-MCA as substrate by fluorescence assay
[14] = Antiviral activity against DENV-2 NGC infected in african green monkey Vero B cells assessed as reduction in virus induced cytopathic effect; type: functional, cell-based, dengue virus type 2; conditions: Dengue virus
[15] = Permeability of the compound at pH 7.4; type: ADME; conditions: PAMPA, read-out: permeability
[16] = Antiviral activity against DENV2 infected in human K562 cells assessed as log reduction of viral titre measured at 1 uM measured after 72 hrs; type: functional, dengue virus type 2
[17] = Antiviral activity against DENV2 infected in human Huh-7 cells assessed as log reduction of viral titre measured at 1 uM measured after 72 hrs; type: functional, dengue virus type 2
dengue virus type 2 [18] = assay: Antiviral activity against DENV2; type: functional, organism-based
Dengue virus = assay: Antiviral activity against Dengue virus assessed as reduction in viral titer at 50 uM preincubated for 1 hr measured after 24 hrs post infection by plaque assay relative to control; type: functional; design: scale not given: the % may be the effect or the level left; conditions: time 25 hrs
[19] = Inhibition of DENV2 protease infected in human HeLa cells; type: cell-based, dengue virus type 2; conditions: Dengue virus
[20] = Antiviral activity against DENV2 infected in african green monkey Vero cells assessed as reduction of viral titre by viral plaque reduction assay; type: functional, cell-based, dengue virus type 2; conditions: Dengue virus
Genome polyprotein [21] = target: T1, Genome polyprotein; assay: Inhibition of DENV NS2B/NS3 pro
[22] = Antiviral activity against DENV2 infected in BHK-21 cells assessed as inhibition of viral replication; type: functional, cell-based, dengue virus type 2; conditions: Dengue virus
[23] = Cytotoxicty against BHK-21 cells assessed as reduction in cell viability; type: toxicity, cell-based; conditions: Mesocricetus auratus (golden hamster)
dengue virus type 3 = assay: Antiviral activity against DENV3 infected in human Huh-7 cells assessed as inhibition of viral replication measured after 72 hrs post infection by qRT-PCR analysis; type: functional, organism-based; conditions: Huh-7, 72 h
dengue virus type 4 = assay: Antiviral activity against DENV4 infected in human Huh-7 cells assessed as inhibition of viral replication measured after 72 hrs post infection by qRT-PCR analysis; type: functional, organism-based; conditions: Huh-7, 72 h
dengue virus type 1 [24] = assay: Antiviral activity against DENV1 infected in human Huh-7 cells assessed as inhibition of viral replication measured after 72 hrs post infection by qRT-PCR analysis; type: functional, organism-based; conditions: Huh-7, 72 h
dengue virus type 2 [25] = assay: Antiviral activity against DENV2 infected in human Huh-7 cells assessed as inhibition of viral replication measured after 72 hrs post infection by qRT-PCR analysis; type: functional, organism-based; conditions: Huh-7, 72 h
dengue virus type 2 [26] = assay: Antiviral activity against DENV2 (TR1751) infected in BHK-21 cells assessed as reduction in virus titre at 100 uM by focus forming assay relative to control; type: functional; design: scale not given: the % may be the effect or the level left
dengue virus type 2 [27] = assay: Antiviral activity against DENV2 (TR1751) infected in BHK-21 cells assessed as reduction in virus titre at 1000 uM by focus forming assay relative to control; type: functional; design: scale not given: the % may be the effect or the level left

T1 sequence (P29990 1346-1475 limits assumed): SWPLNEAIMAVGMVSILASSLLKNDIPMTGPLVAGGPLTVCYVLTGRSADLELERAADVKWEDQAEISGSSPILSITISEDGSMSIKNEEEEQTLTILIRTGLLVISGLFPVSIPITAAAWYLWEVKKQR
T1 sequence (P29990 1476-2093 limits assumed): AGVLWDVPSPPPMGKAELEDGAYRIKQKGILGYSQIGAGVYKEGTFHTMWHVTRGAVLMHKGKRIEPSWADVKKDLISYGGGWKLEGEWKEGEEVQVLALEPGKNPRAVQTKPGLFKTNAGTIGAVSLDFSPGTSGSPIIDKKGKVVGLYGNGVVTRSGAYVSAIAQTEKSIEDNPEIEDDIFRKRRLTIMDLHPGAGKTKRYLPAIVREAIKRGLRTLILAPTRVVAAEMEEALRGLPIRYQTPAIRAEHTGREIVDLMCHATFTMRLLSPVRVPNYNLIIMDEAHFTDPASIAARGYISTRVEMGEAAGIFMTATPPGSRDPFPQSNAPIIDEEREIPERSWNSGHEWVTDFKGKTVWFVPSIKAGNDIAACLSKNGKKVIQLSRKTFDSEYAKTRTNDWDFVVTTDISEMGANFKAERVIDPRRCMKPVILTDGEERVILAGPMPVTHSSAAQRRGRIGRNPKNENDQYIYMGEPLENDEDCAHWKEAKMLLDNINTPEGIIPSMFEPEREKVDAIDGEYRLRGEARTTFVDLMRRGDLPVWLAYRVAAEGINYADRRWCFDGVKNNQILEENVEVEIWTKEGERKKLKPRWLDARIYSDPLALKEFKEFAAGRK

`COC(=O)c1[nH]c2ccc(Cl)cc2c1C(=O)c1cc(OC)c(OC)c(OC)c1` showed an EC50 (dengue virus type 2 [1]) of 4.6 µM, an EC50 (Genome polyprotein [2]) of 4.7 µM and an EC50 (dengue virus type 2 [3]) of 4.6 µM. For the same compound, the EC50 (dengue virus type 2 [4]) was 4.6 µM and the EC50 [5] was 6.7 µM.

With `CCCCC(=O)Nc1nc(SC(=O)CCCC)c2nc[nH]c2n1` the IC50 (Genome polyprotein [6]) was 0.38 µM.

For `N#C/C(=C/c1ccc(-c2ccc(C(=O)O)cc2)s1)c1nc2cc(Cl)ccc2[nH]1`, the “inhibition (INH)” value [7] was 73%, the IC50 (Genome polyprotein [8]) was 5.95 µM and the “inhibition (INH)” value (dengue virus type 1 [9]) was 50%. For the same compound, the “inhibition (INH)” value [10] was 83% and the “inhibition (INH)” value [11] was 75%.

`CCCCC1C(C(=O)OCC)C(c2ccccc2)CCN1C(=O)OC(C)(C)C` (stereo unspecified) showed an EC50 [12] of 3.2 µM and an IC50 (Genome polyprotein [13]) of 214 µM.

`Cc1c(O)cccc1C(=O)N[C@@H](CSc1ccccc1)[C@H](O)CN1C[C@H]2CCCC[C@H]2C[C@H]1C(=O)NC(C)(C)C` gave an EC50 [14] of 3.5 µM.

With `O=C1c2c(O)ccc([N+](=O)[O-])c2C(=O)c2c([N+](=O)[O-])ccc(O)c21` the Papp [15] was 4.45 ×10⁻⁶ cm/s, the “log(activity)” value [16] was over 1 PFU/ml and the “log(activity)” value [17] was over 1 PFU/ml. For the same compound, the EC50 (dengue virus type 2 [18]) was 4.2 µM.

`C[C@@H](CC[C@H](O)[C@](C)(O)CO)[C@@H]1CC[C@]2(C)C3=CC[C@@H]4C(C)(C)C(=O)CC[C@@]4(C)C3=CC[C@@]12C` showed an Activity (Dengue virus) of 40%.

In the case of `CCCCCC(=O)N[C@H](C(=O)NCc1ccc(NC(=N)N)cc1)c1ccc(OCc2ccccc2)cc1`, the EC50 [19] is reported as 0.49 µM.

`O=C(O)c1ccccc1-c1c2cc(I)c(=O)c(I)c-2oc2c(I)c(O)c(I)cc12` gave an EC50 [20] of 1.2 µM.

`Cc1cc(O)c(S(=O)(=O)O)cc1Cc1cc(S(=O)(=O)O)c(O)c(Cc2cc(S(=O)(=O)O)c(O)cc2C)c1C` gave an IC50 (Genome polyprotein [21]) of 0.815 µM, an IC50 [22] of 4.99 µg/mL (≈ 8.48 µM) and an IC50 [23] of 459 µg/mL (≈ 781 µM).

Compound `CC(=O)O[C@H]1CC(C)(C)C(=C=C/C(C)=C/C=C/C=C/C=C(C)/C=C2C=C(/C=C/[C@@]34O[C@]3(C)C[C@@H](O)CC4(C)C)C(=O)O/2)[C@](C)(O)C1` has an EC50 (dengue virus type 3) of 5.84 µM, an EC50 (dengue virus type 4) of 5.84 µM and an EC50 (dengue virus type 2 [3]) of 4.5 µM. It also gave an EC50 (dengue virus type 1 [24]) of 5.84 µM and an EC50 (dengue virus type 2 [25]) of 4.5 µM.

For `Oc1cc(O)c2c(c1)O[C@H](c1ccc(O)c(O)c1)[C@H](O)C2` [(-)-EPICATECHIN], the Activity (dengue virus type 2 [26]) was 77.7% and the Activity (dengue virus type 2 [27]) was 66.2%.
